Article PMC11928319 (Nature Plants, 2025)
Several values for one entry are separate records, joined by “and”; a condition that tells them apart may be missing. Equal values may be shown once.

Key:
[1] = test system: Arabidopsis wild type and efr mutant plants; experiment: elf18-induced shoot growth inhibition, shoot weight; type: in vivo, Arabidopsis thaliana; conditions: Arabidopsis Col-0, 1 µM, 2 weeks
EFR = experiment: Expression of EFR normalized to UBQ5 in roots (RT–qPCR) and pEFR::NLS–3*mVenus reporter; type: in vivo, Arabidopsis thaliana; conditions: timepoint 1h, single samples
Method: Axenic 14-day-old seedlings (see ‘Agar-based cultivation of axenic plants and co-cultivation with bacteria, bacterial supernatants and elicitors’) were submerged in 12 ml of 10 mM MgSO4 supplemented with 1 µM elicitor or bacteria, which were directly harvested from 0.5× TSB plates and resuspended in 10 mM MgSO4. Bacterial concentration was adjusted to OD600 = 1.5, if not indicated differently. For a heat-killed bacterial inoculum, resuspended bacteria were incubated in boiling water for 30 min. […] For co-exposure to flg22 and AtPep1, seedlings were submerged as described for 1 h, residual liquid was removed and the plants were incubated in a cultivation chamber for 4 h prior to harvesting.
For reverse transcription quantitative PCR (RT–qPCR), roots of eight to ten plants grown on one square plate were pooled for one sample. Frozen roots were homogenized using a TissueLyser II (QIAGEN, 2 × 29 pps for 40 s) with pre-cooled adaptors. RNA was extracted using the Plant RNA Kit (my-Budget) according to the user manual and eluted in 35 µl of elution buffer. RNA concentrations were measured using a spectrometer (Nanodrop OneC Microvolume UV-Vis Spectrophotometer). Complementary DNA was synthesized from 300–500 ng of RNA using the RevertAid H Minus First Strand cDNA Synthesis Kit (ThermoScientific) in a 20-µl reaction according to the user manual. In brief, 1 µl of oligo(dT)18 primer was mixed with RNA in a final volume of 12 µl and incubated at 65 °C for 5 min. Afterwards, 4 µl of 5× Reaction buffer, 2 µl of 10 mM dNTPs, 1 µl of RiboLock RNase Inhibitor (20 U µl^−1) and 1 µl of RevertAid H Minus M-MuLV Reverse Transcriptase (200 U µl^−1) were added, and the reaction was incubated at 42 °C for 60 min followed by heat inactivation at 70 °C for 5 min. cDNA was diluted 1:10 prior to qPCR using the iQ SYBR Green Supermix (Bio-Rad). […]

Ac-SKEKFERTKPHVNVGTIG [elf18] was tested, and the “shoot growth (shoot weight) upon peptide treatment” value [1] was “Shoot growth inhibition”, the “EFR fold_change” value (EFR; Replicate I) was 1.977 and 2.517 and 1.4157 and 1.558 and the “EFR fold_change” value (EFR; Replicate II) was 1.051 and 1.166 and 0.9721 and 1.1066. For the same substance, the “EFR fold_change” value (EFR; Replicate III) was 1.492 and 1.557 and 2.228 and 1.3126.
